Measurements reported in patent US8158810B2 (Gilead Sciences, Inc., priority 2006, dated 2012).
Where “and” joins values, the source holds several entries; their conditions need not be identical. Identical values can stand only once.

How the values were obtained:
Format in all cases: biochemical
hMAO-B = target: T1, hMAO-B (Homo sapiens, UniProt P27338); assay: MAO-B inhibition assay; settings: No = no inhibition; for inhibition at 10 µM / hMAO-B inhibition at 10 μM: printed in the IC50 hMAO-B column
T1 construct: purchased Sigma M7441
T1 sequence (P27338 1-520): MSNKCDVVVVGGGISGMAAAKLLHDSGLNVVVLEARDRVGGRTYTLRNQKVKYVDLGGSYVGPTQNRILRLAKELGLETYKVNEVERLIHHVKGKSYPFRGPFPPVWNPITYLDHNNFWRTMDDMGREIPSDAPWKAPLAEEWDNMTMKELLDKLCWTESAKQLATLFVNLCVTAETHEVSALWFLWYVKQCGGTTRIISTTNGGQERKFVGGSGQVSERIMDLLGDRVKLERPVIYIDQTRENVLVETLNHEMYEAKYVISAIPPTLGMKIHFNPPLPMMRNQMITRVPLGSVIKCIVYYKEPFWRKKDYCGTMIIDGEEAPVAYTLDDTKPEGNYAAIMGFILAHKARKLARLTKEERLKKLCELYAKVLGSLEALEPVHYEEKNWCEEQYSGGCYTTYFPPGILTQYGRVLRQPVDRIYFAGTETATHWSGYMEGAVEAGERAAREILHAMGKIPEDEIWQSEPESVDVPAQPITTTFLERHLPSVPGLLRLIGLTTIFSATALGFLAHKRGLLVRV
Protocol: (§1) MAO-A (Sigma M7316) and MAO-B (Sigma M7441) inhibition assays were conducted in 96-well micro-plates according to the method described by Zhou et al. [Analytical Biochemistry 253, 169-174, 1997]. […] Reactions were initiated by the addition of a pre-mixed solution of tyramine, horseradish peroxidase and Amplex Red, and were allowed to proceed at 37° C. for 30 min. Enzyme activities were determined by measuring absorbance at 570 nm (SpectralMax Plate reader), absorbance of oxidized Amplex Red generated by this horseradish peroxidase-coupled reaction. Nonspecifically formed products were determined in the presence of 2 and 10 µM clorgyline and deprenyl for MAO-A and MAO-B, respectively. IC50 values were determined by fitting concentration-inhibition data to sigmoidal dose-response curves with two-floating parameters: IC50 and Hill coefficient.

hMAO-A = target: T2, hMAO-A (Homo sapiens, UniProt P21397); assay: MAO-A inhibition assay; settings: up to 10 μM; No = no inhibition; printed in the IC50 hMAO-A column
T2 construct: purchased Sigma M7316
T2 sequence (P21397 1-527): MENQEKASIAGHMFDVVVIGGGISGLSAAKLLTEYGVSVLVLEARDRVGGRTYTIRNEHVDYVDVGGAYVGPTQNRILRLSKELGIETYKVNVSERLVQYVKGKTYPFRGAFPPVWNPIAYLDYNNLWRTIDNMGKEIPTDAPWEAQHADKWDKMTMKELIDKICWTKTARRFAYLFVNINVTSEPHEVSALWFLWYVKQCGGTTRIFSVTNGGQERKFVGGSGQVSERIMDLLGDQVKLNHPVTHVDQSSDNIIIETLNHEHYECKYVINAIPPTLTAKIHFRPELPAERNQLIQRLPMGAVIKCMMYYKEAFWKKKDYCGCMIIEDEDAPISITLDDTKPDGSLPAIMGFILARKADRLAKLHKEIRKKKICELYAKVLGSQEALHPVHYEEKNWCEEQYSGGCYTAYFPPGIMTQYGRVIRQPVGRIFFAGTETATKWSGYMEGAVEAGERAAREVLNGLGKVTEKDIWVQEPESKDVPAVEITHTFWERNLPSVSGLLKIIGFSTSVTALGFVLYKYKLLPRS
Protocol: as §1

[1] = target: T3, hALDH2 (recombinant human mitochondria ALDH) (Homo sapiens, UniProt P05091); assay: ALDH2 inhibition assay; settings: for hALDH2 inhibition at 1 μM: printed in the IC50 hALDH2 column
T3 sequence (P05091 18-517): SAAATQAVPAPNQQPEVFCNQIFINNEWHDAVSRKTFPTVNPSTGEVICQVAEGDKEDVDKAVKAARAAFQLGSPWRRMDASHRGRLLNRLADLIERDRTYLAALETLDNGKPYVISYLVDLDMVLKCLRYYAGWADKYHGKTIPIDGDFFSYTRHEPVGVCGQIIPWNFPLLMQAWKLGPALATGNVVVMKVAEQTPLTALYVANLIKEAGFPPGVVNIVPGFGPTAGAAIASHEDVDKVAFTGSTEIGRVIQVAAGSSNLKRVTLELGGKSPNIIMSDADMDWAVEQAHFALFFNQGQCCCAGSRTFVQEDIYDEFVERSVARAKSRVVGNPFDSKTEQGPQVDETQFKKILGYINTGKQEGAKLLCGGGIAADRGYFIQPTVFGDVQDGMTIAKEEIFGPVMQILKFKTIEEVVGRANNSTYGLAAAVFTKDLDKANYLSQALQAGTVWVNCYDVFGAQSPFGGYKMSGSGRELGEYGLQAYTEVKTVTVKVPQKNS
Protocol: ALDH2 inhibition assays were performed in sodium phosphate buffer (50 mM, pH 7.4) containing 1.2 mM NAD^+ (Sigma N7004), 1 nM hALDH2 (recombinant human mitochondria ALDH), various concentrations of test compounds (from 0.03 nM to […]), and 0.15 mM freshly prepared formaldehyde solution (Ladd Research 20295). Reactions were initiated by the addition of formaldehyde and rates were recorded by monitoring NADH formation in a temperature controlled (25° C.) FluoroMax-2 Fluorimeter with excitation and emission wavelengths set at 340 and 460 nm, respectively. […] Normally, IC50 values were determined by fitting concentration-inhibition data to sigmoidal dose-response curves with two-floating parameters: IC50 and Hill coefficient. When tight binding situation was suspected, apparent Ki values were estimated by fitting dose-response data to Morrison's equation [Methods in Enzymology 63, 437-467, 1979].

Row | inhibition at 10 µM (hMAO-B) [%] | hMAO-A inhibition up to 10 μM (hMAO-A) | IC50 [1] | hMAO-B inhibition at 10 μM (hMAO-B) | hALDH2 inhibition at 1 μM [1] [%] | hMAO-B inhibition up to 10 μM (hMAO-B; up to 10 μM) | Molecule
1 | 30 | No | 17 nM and 15 nM | – | – | – | CC(Oc1ccc2c(=O)c(-c3ccc(O)cc3)coc2c1)c1nnc(-c2cccnc2)o1 (centres unmarked)
2 | 18 | No | 48 nM | – | – | – | CC(Oc1ccc2c(=O)c(-c3ccc(O)cc3)coc2c1)c1noc(-c2cc(F)cc(C(F)(F)F)c2)n1 (centres unmarked)
3 | – | No | 18 nM | 21% | – | – | 3-(4-hydroxyphenyl)-7-(2-{4-[3-(trifluoromethyl)phenyl]piperazinyl}ethoxy)chromen-4-one [PT-124]
4 | – | No | 98 nM | No | – | – | 3-(4-hydroxyphenyl)-7-[(5-(4-pyridyl)(1,2,4-oxadiazol-3-yl))ethoxy]chromen-4-one [PT-117]
5 | – | No | 10 nM | – | – | – | 3-(4-hydroxyphenyl)-7-[(6-pyrazolyl(3-pyridyl))methoxy]chromen-4-one [PT-52]
6 | – | No | 11 nM | – | – | – | 7-{2-[4-(3-chlorophenyl)piperazinyl]ethoxy}-3-(4-hydroxyphenyl)chromen-4-one [PT-123]
7 | – | – | – | – | 25 | – | N#Cc1cc(-c2coc3cc(OCc4noc(-c5cc(F)cc(C(F)(F)F)c5)n4)ccc3c2=O)ccc1F [PT-9, 2-fluoro-5-[7-({5-[5-fluoro-3-(trifluoromethyl)phenyl](1,2,4-oxadiazol-3-yl)}methoxy)-4-oxochromen-3-yl]benzenecarbonitrile]
8 | – | No | 20 nM | – | – | No | CC(C)OC(=O)c1cccc(COc2ccc3c(=O)c(-c4ccc(O)cc4)coc3c2)c1 [PT-35, methylethyl 3-{[3-(4-hydroxyphenyl)-4-oxochromen-7-yloxy]methyl}benzoate]
9 | – | – | 110 nM | – | – | – | O=c1c(-c2ccc(O)cc2)coc2cc(OCCc3n[nH]cc3-c3ccc(Cl)cc3)ccc12 [PT-51, 7-{2-[4-(4-chlorophenyl)pyrazolyl]ethoxy}-3-(4-hydroxyphenyl)chromen-4-one]
10 | – | No | 670 nM | 24% | – | – | O=c1c(-c2ccc(O)cc2)coc2cc(OCCc3cccc(C(F)(F)F)c3)ccc12 [PT-59, 3-(4-hydroxyphenyl)-7-{[3-(trifluoromethyl)phenyl]ethoxy}chromen-4-one]
11 | – | No | – | No | – | – | NC(=O)c1ccc(-c2coc3cc(OCc4noc(-c5cc(F)cc(C(F)(F)F)c5)n4)ccc3c2=O)cc1 [PT-72, 4-[7-({5-[3-fluoro-5-(trifluoromethyl)phenyl](1,2,4-oxadiazol-3-yl)}methoxy)-4-oxochromen-3-yl]benzamide]
12 | – | No | – | No | 14 | – | O=c1c(-c2cn[nH]c2)coc2cc(OCc3noc(-c4cc(F)cc(C(F)(F)F)c4)n3)ccc12 [PT-75, 7-({5-[3-fluoro-5-(trifluoromethyl)phenyl](1,2,4-oxadiazol-3-yl)}methoxy)-3-(5-hydropyrazol-4-yl)chromen-4-one]
13 | – | No | – | No | – | – | O=c1c(-c2ccc(O)cc2)coc2cc(OCc3nnc(-c4ccccc4Cl)o3)ccc12 [PT-80, 7-{[5-(2-chlorophenyl)(1,3,4-oxadiazol-2-yl)]methoxy}-3-(4-hydroxyphenyl)chromen-4-one]
14 | – | No | – | No | – | – | O=C(COc1ccc2c(=O)c(-c3ccc(O)cc3)coc2c1)c1ccccc1C(F)(F)F [PT-85, 3(4-hydroxyphenyl)-7-{2-oxo-2-[2-(trifluoromethyl)phenyl]ethoxy}chromen-4-one]
15 | – | No | – | No | – | – | O=c1c(-c2ccc(O)cc2)coc2cc(OCc3cncc(C(F)(F)F)c3)ccc12 [PT-94, 3-(4-hydroxyphenyl)-7-{[5-(trifluoromethyl)(3-pyridyl)]methoxy}chromen-4-one]
16 | – | – | 110 nM | – | – | – | O=c1c(-c2ccc(O)cc2)coc2cc(OCCCc3n[nH]cc3-c3ccc(Cl)cc3)ccc12 [PT-106, 7-{3-[4-(4-chlorophenyl)pyrazolyl]propoxy}-3-(4-hydroxyphenyl)chromen-4-one]
17 | – | No | – | No | – | – | O=c1c(-c2ccc(O)cc2)coc2cc(OCc3nnc(-c4cccnc4)o3)ccc12 [PT-110, 3-(4-hydroxyphenyl)-7-[(5-(3-pyridyl)(1,3,4-oxadiazol-2-yl))methoxy]chromen-4-one]
18 | – | No | – | No | – | – | O=c1c(-c2ccc(O)cc2)coc2cc(OCc3nc(-c4cccnc4)no3)ccc12 [PT-114, 3-(4-hydroxyphenyl)-7-[(3-(3-pyridyl)(1,2,4-oxadiazol-5-yl))methoxy]chromen-4-one]
19 | – | No | – | No | – | – | O=c1c(-c2ccc(O)cc2)coc2cc(OCc3nc(-c4cccc(C(F)(F)F)c4)no3)ccc12 [PT-115, 3-(4-hydroxyphenyl)-7-({3-[3-(trifluoromethyl)phenyl](1,2,4-oxadiazol-5-yl)}methoxy)chromen-4-one]
20 | – | No | – | No | – | – | CNC(=O)c1coc(COc2ccc3c(=O)c(-c4ccc(O)cc4)coc3c2)n1 [PT-118, (2-{[3-(4-hydroxyphenyl)-4-oxochromen-7-yloxy]methyl}(1,3-oxazol-4-yl))-N-methylcarboxamide]
21 | – | No | – | No | – | – | COc1ccc2c(COc3ccc4c(=O)c(-c5ccc(O)cc5)coc4c3)cc(=O)oc2c1 [PT-119, 4-{[3-(4-hydroxyphenyl)-4-oxochromen-7-yloxy]methyl}-7-methoxychromen-2-one]
22 | – | No | – | No | – | – | Nc1cccc(-c2nnc(COc3ccc4c(=O)c(-c5ccc(O)cc5)coc4c3)o2)c1 [PT-121, 7-{[5-(3-aminophenyl)(1,3,4-oxadiazol-2-yl)]methoxy}-3-(4-hydroxyphenyl)chromen-4-one]
23 | – | No | – | No | – | – | CCOC(=O)c1cnn(CCOc2ccc3c(=O)c(-c4ccc(O)cc4)coc3c2)c1 [PT-122, ethyl 1-{2-[3-(4-hydroxyphenyl)-4-oxochromen-7-yloxy]ethyl}pyrazole-4-carboxylate]
